# Where a SMILES comes first, the peptide text is derived from it.
# How the values were obtained:
# Staphylococcus aureus [1] = experiment: Antibacterial activity against Staphylococcus aureus ATCC 29213 incubated for 18 to 24 hrs by broth microdilution method; assay type: functional
# [2] = Cytotoxicity against mouse RAW264.7 cells assessed as cell survival at <= 32 uM after 24 hrs by MTT assay relative to control; assay type: cell-based; details: RAW264.7 cells, up to 32 µM, read-out: Activity
# Erythrocyte = experiment: Haemolytic activity in human erythrocytes assessed as lowest concentration causing 5% hemolysis after 1 hr; assay type: ADME, cell-based
# [3] = test system: Staphylococcus epidermidis; experiment: Antibacterial activity against Staphylococcus epidermidis ATCC 12228 incubated for 18 to 24 hrs by broth microdilution method; assay type: functional
# Salmonella typhimurium = experiment: Antibacterial activity against Salmonella enterica serovar typhimurium C77-31 incubated for 18 to 24 hrs by broth microdilution method; assay type: functional, Salmonella enterica subsp. enterica serovar Typhimurium
# Escherichia coli [4] = experiment: Antibacterial activity against Escherichia coli UB1005 incubated for 18 to 24 hrs by broth microdilution method; assay type: functional
# Escherichia coli [5] = experiment: Antibacterial activity against Escherichia coli ATCC 25922 incubated for 18 to 24 hrs by broth microdilution method; assay type: functional
# [6] = Therapeutic index, ratio of MHC for human RBC to geometric mean of peptide MIC for Escherichia coli ATCC 25922; assay type: toxicity; details: pooled result: one value given for 6 cell lines, strains, targets or settings, read-out: TI
# Staphylococcus aureus [7] = experiment: Antibacterial activity against Staphylococcus aureus ATCC 25923 incubated for 18 to 24 hrs by broth microdilution method; assay type: functional
# Acinetobacter baumannii [8] = experiment: Antibacterial activity against Acinetobacter baumannii AB1901 clinical isolate incubated for 18 to 24 hrs by broth microdilution method; assay type: functional
# Pseudomonas aeruginosa = experiment: Antibacterial activity against Pseudomonas aeruginosa 25349 clinical isolate incubated for 18 to 24 hrs by broth microdilution method; assay type: functional
# Acinetobacter baumannii [9] = experiment: Antibacterial activity against Acinetobacter baumannii AB1902 clinical isolate incubated for 18 to 24 hrs by broth microdilution method; assay type: functional
# Escherichia coli [10] = experiment: Antibacterial activity against Escherichia coli 20411 clinical isolate incubated for 18 to 24 hrs by broth microdilution method; assay type: functional
# Staphylococcus aureus [11] = experiment: Antibacterial activity against Staphylococcus aureus 11011 incubated for 18 to 24 hrs by broth microdilution method; assay type: functional
# [12] = Cytotoxicity against mouse RAW264.7 cells assessed as cell survival at < 32 uM after 24 hrs by MTT assay; assay type: cell-based; details: read-out: Activity
# Escherichia coli [13] = experiment: Antibacterial activity against ciprofloxacin-resistant Escherichia coli ATCC 25922 incubated for 18 to 24 hrs; assay type: functional
# [14] = Resistance index, ratio of MIC for antibacterial activity against ciprofloxacin-resistant Escherichia coli to MIC for Escherichia coli ATCC 25922 incubated for 18 to 24 hrs by broth microdilution method; assay type: functional
SMILES,MIC (Staphylococcus aureus [1]) [µM],MIC [3] [µM],MIC (Salmonella typhimurium) [µM],MIC (Escherichia coli [4]) [µM],MIC (Escherichia coli [5]) [µM],MIC (Staphylococcus aureus [7]) [µM],MIC (Acinetobacter baumannii [8]) [µM],MIC (Pseudomonas aeruginosa) [µM],MIC (Acinetobacter baumannii [9]) [µM],MIC (Escherichia coli [10]) [µM],MIC (Staphylococcus aureus [11]) [µM],viability at 24 h [2] [%],MHC (Erythrocyte) [µM],selectivity ratio [6],viability at 24 h [12] [%],MIC (Escherichia coli [13]) [µM],Ratio [14]
CC(C)C[C@H](NC(=O)[C@H](CCCNC(=N)N)NC(=O)[C@@H](NC(=O)[C@H](CCCNC(=N)N)NC(=O)[C@@H](NC(=O)[C@H](CCCCN)NC(=O)[C@@H](NC(=O)[C@H](CCCNC(=N)N)NC(=O)[C@H](CC(C)C)NC(=O)[C@H](CCCNC(=N)N)NC(=O)[C@@H](N)C(C)C)C(C)C)[C@@H](C)O)C(C)C)C(=O)N[C@@H](CCCCN)C(N)=O (H-VRLRVKTRVRLK-NH2),16,32,16,4,4,64,,,,,,≥ 70,> 128,18,,,
CCn1cc(C(=O)O)c(=O)c2cc(F)c(N3CCNCC3)cc21 [NORFLOXACIN],1,1,0.25,4,0.125,2,> 128,2,> 128,0.0625,2,,,,,1,
CO[C@H]1/C=C/O[C@@]2(C)Oc3c(C)c(O)c4c(O)c(c(/C=N/N5CCN(C)CC5)c(O)c4c3C2=O)NC(=O)/C(C)=C\C=C\[C@H](C)[C@H](O)[C@@H](C)[C@@H](O)[C@@H](C)[C@H](OC(C)=O)[C@@H]1C [RIFAMPIN],0.25,0.25,4,8,4,0.25,1,16,1,4,,,,,,8,2

# Further compounds by falling MIC (Staphylococcus aureus [1]), results first:
MIC (Staphylococcus aureus [1]) [µM],MIC [3] [µM],MIC (Salmonella typhimurium) [µM],MIC (Escherichia coli [4]) [µM],MIC (Escherichia coli [5]) [µM],MIC (Staphylococcus aureus [7]) [µM],MIC (Acinetobacter baumannii [8]) [µM],MIC (Pseudomonas aeruginosa) [µM],MIC (Acinetobacter baumannii [9]) [µM],MIC (Escherichia coli [10]) [µM],MIC (Staphylococcus aureus [11]) [µM],SMILES,viability at 24 h [2] [%],MHC (Erythrocyte) [µM],selectivity ratio [6],viability at 24 h [12] [%],MIC (Escherichia coli [13]) [µM],Ratio [14]
4,16,8,4,2,16,,,,,,CC(C)C[C@H](NC(=O)[C@H](CCCNC(=N)N)NC(=O)[C@H](Cc1c[nH]c2ccccc12)NC(=O)[C@H](CCCNC(=N)N)NC(=O)[C@@H](NC(=O)[C@H](CCCCN)NC(=O)[C@H](Cc1c[nH]c2ccccc12)NC(=O)[C@H](CCCNC(=N)N)NC(=O)[C@H](CC(C)C)NC(=O)[C@H](Cc1c[nH]c2ccccc12)NC(=O)[C@@H](N)CCCNC(=N)N)[C@@H](C)O)C(=O)N[C@@H](CCCCN)C(N)=O (H-RWLRWKTRWRLK-NH2),≥ 70,> 128,40.3,,,
2,4,4,2,4,4,8,32,8,4,4,CC(C)[C@H](NC(=O)[C@H](CCCNC(=N)N)NC(=O)[C@H](Cc1c[nH]c2ccccc12)NC(=O)[C@H](CCCNC(=N)N)NC(=O)[C@@H](NC(=O)[C@H](CCCCN)NC(=O)[C@H](Cc1c[nH]c2ccccc12)NC(=O)[C@H](CCCNC(=N)N)NC(=O)[C@@H](NC(=O)[C@H](CCCNC(=N)N)NC(=O)[C@@H](N)Cc1c[nH]c2ccccc12)C(C)C)[C@@H](C)O)C(=O)N[C@@H](CCCCN)C(N)=O (H-WRVRWKTRWRVK-NH2),,> 128,80.8,> 90,,
1,2,2,2,4,2,2,4,4,1,2,CC(C)[C@H](NC(=O)[C@H](CCCNC(=N)N)NC(=O)[C@H](Cc1c[nH]c2ccccc12)NC(=O)[C@H](CCCNC(=N)N)NC(=O)[C@@H](NC(=O)[C@H](CCCCN)NC(=O)[C@H](Cc1c[nH]c2ccccc12)NC(=O)[C@H](CCCNC(=N)N)NC(=O)[C@@H](NC(=O)[C@H](CCCNC(=N)N)NC(=O)[C@@H](N)Cc1c[nH]c2ccccc12)C(C)C)C(C)C)C(=O)N[C@@H](CCCCN)C(N)=O (H-WRVRWKVRWRVK-NH2),,> 128,128,> 90,,
1,2,4,2,4,2,2,4,2,2,1,CC(C)[C@H](NC(=O)[C@H](CCCNC(=N)N)NC(=O)[C@H](Cc1c[nH]c2ccccc12)NC(=O)[C@H](CCCNC(=N)N)NC(=O)[C@@H](NC(=O)[C@H](CCCNC(=N)N)NC(=O)[C@H](Cc1c[nH]c2ccccc12)NC(=O)[C@H](CCCNC(=N)N)NC(=O)[C@@H](NC(=O)[C@H](CCCNC(=N)N)NC(=O)[C@@H](N)Cc1c[nH]c2ccccc12)C(C)C)C(C)C)C(=O)N[C@@H](CCCNC(=N)N)C(N)=O (H-WRVRWRVRWRVR-NH2),,> 128,114,> 90,,

# From ChEMBL document CHEMBL4311942, “Design of Trp-Rich Dodecapeptides with Broad-Spectrum Antimicrobial Potency and Membrane-Disruptive Mechanism” (J Med Chem, 2019)
